This note sets out measurements from ChEMBL document CHEMBL3046652, “Photodimerization of heteroaryl chalcones: comparative antimicrobial activities of chalcones and their photoproducts” (2012).

≈ marks a conversion by molar mass, not a printed value.

The MIC is the smallest concentration in the dilution series that meets the test's criterion for growth inhibition.

Holding throughout (type): functional
Experiment [1] has as its system Priestia megaterium. Kind of experiment: Antimicrobial activity against Bacillus megaterium at 10 ug/disk by disk diffusion method. Conditions: read-out: DIZ. Background: Agar diffusion results depend on both activity and mobility in agar.
The test system of experiment [2] is Serratia marcescens. Description: Antimicrobial activity against Serratia marcescens at 10 ug/disk by disk diffusion method. Conditions: read-out: DIZ.
Experiment [3] deals with Serratia marcescens. Description: Antimicrobial activity against Serratia marcescens by disk diffusion method.
The subject of experiment [4] is Pseudomonas aeruginosa. Kind of experiment: Antimicrobial activity against Pseudomonas aeruginosa by disk diffusion method.
Experiment [5] deals with Citrobacter freundii. Description: Antimicrobial activity against Citrobacter freundii at 20 ug/disk by disk diffusion method. Conditions: read-out: DIZ.
For experiment [6], the system named is Proteus vulgaris. Kind of experiment: Antimicrobial activity against Proteus vulgaris by disk diffusion method.
In experiment [7] the test system is Salmonella typhi. Description: Antimicrobial activity against Salmonella enterica subsp. enterica serovar Typhi at 50 ug/disk by disk diffusion method. Conditions: read-out: DIZ.
Experiment [8] concerns Micrococcus luteus. Kind of experiment: Antimicrobial activity against Micrococcus luteus at 10 ug/disc by disk diffusion method. Conditions: read-out: DIZ.
In experiment [9] the test system is Candida albicans. Description: Antimicrobial activity against Candida albicans at 10 ug/disk by disk diffusion method. As to conditions: read-out: DIZ.
Experiment [10] concerns Klebsiella pneumoniae. Description: Antimicrobial activity against Klebsiella pneumoniae at 20 ug/disk by disk diffusion method. Conditions: read-out: DIZ.
The subject of experiment [11] is Klebsiella pneumoniae. Kind of experiment: Antimicrobial activity against Klebsiella pneumoniae by disk diffusion method.
Experiment [12] concerns Pseudomonas aeruginosa. Description: Antimicrobial activity against Pseudomonas aeruginosa at 40 ug/disk by disk diffusion method. As to conditions: read-out: DIZ.
The test system of experiment [13] is Citrobacter freundii. Kind of experiment: Antimicrobial activity against Citrobacter freundii by disk diffusion method.
Experiment [14] has as its system Micrococcus luteus. Description: Antimicrobial activity against Micrococcus luteus by disk diffusion method.
Experiment [15] relates to Fusarium verticillioides. Kind of experiment: Antimicrobial activity against Fusarium verticillioides at 30 ug/disk by disk diffusion method. Conditions: read-out: DIZ.
The test system of experiment [16] is Escherichia coli. Description: Antimicrobial activity against Escherichia coli by disk diffusion method.
The subject of experiment [17] is Escherichia coli. Description: Antimicrobial activity against Escherichia coli at 30 ug/disk by disk diffusion method. As to conditions: read-out: DIZ.
Experiment [18] relates to Salmonella typhi. Kind of experiment: Antimicrobial activity against Salmonella enterica subsp. enterica serovar Typhi by disk diffusion method.
The subject of experiment [19] is Proteus vulgaris. Description: Antimicrobial activity against Proteus vulgaris at 10 ug/disk by disk diffusion method. Conditions: read-out: DIZ.
Experiment [20] concerns Aspergillus oryzae. Kind of experiment: Antimicrobial activity against Aspergillus oryzae at 30 ug/disk by disk diffusion method. Conditions: read-out: DIZ.
Another experiment concerns Aspergillus niger. Description: Antimicrobial activity against Aspergillus niger at 20 ug/disk by disk diffusion method. As to conditions: read-out: DIZ.
The test system of experiment [21] is Priestia megaterium. Kind of experiment: Antimicrobial activity against Bacillus megaterium by disk diffusion method.
For experiment [22], the system named is Pseudomonas aeruginosa. Kind of experiment: Antimicrobial activity against Pseudomonas aeruginosa at 10 ug/disk by disk diffusion method. Conditions: read-out: DIZ.
Experiment [23] has as its system Candida albicans. Kind of experiment: Antimicrobial activity against Candida albicans at 40 ug/disk by disk diffusion method. As to conditions: read-out: DIZ.
In experiment [24] the test system is Salmonella typhi. Description: Antimicrobial activity against Salmonella enterica subsp. enterica serovar Typhi at 10 ug/disk by disk diffusion method. Conditions: read-out: DIZ.
The test system of experiment [25] is Fusarium verticillioides. Description: Antimicrobial activity against Fusarium verticillioides at 10 ug/disk by disk diffusion method. Conditions: read-out: DIZ.
Experiment [26] relates to Escherichia coli. Kind of experiment: Antimicrobial activity against Escherichia coli at 10 ug/disk by disk diffusion method. As to conditions: read-out: DIZ.
The subject of experiment [27] is Klebsiella pneumoniae. Description: Antimicrobial activity against Klebsiella pneumoniae at 10 to 60 ug/disk by disk diffusion method.
Experiment [28] concerns Serratia marcescens. Kind of experiment: Antimicrobial activity against Serratia marcescens at 20 ug/disk by disk diffusion method. As to conditions: read-out: DIZ.
Experiment [29] relates to Proteus vulgaris. Description: Antimicrobial activity against Proteus vulgaris at 20 ug/disk by disk diffusion method. As to conditions: read-out: DIZ.
Experiment [30] concerns Aspergillus oryzae. Kind of experiment: Antimicrobial activity against Aspergillus oryzae at 10 ug/disk by disk diffusion method. Conditions: read-out: DIZ.

`O=C(/C=C/c1ccccc1)c1ccc[nH]1`: the zone of inhibition at 10 µg/disc in the experiment on Priestia megaterium [1] worked out at 13 mm; with Serratia marcescens [2], 9 mm; in the experiment on Micrococcus luteus [8], 7 mm; with Candida albicans [9] it was 7 mm; in the experiment with Proteus vulgaris [19] it was 5 mm. Also, the MIC in the experiment with Serratia marcescens [3], with Pseudomonas aeruginosa [4], against Proteus vulgaris [6], in the experiment with Klebsiella pneumoniae [11], in the experiment on Citrobacter freundii [13] and in the experiment with Micrococcus luteus [14] was 10 µg/mL (≈ 50.7 µM) each time. The MIC against Escherichia coli [16], against Salmonella typhi [18] and in the experiment with Priestia megaterium [21] was 10 µg/mL (≈ 50.7 µM) throughout. In addition, the zone of inhibition at 20 µg/disc was 6 mm in the experiment with Citrobacter freundii [5], 8 mm with Klebsiella pneumoniae [10] and 11 mm in the experiment on Aspergillus niger. Further, the zone of inhibition at 50 µg/disc with Salmonella typhi [7] came out at 7 mm. The zone of inhibition at 40 µg/disc with Pseudomonas aeruginosa [12] stood at 7 mm. The values for the zone of inhibition at 30 µg/disc in the experiment with Fusarium verticillioides [15], in the experiment with Escherichia coli [17] and in the experiment with Aspergillus oryzae [20] were 8 mm, 7 mm and 9 mm, respectively.
Turning to `O=C(/C=C/c1ccccc1)c1cccs1`, the zone of inhibition at 10 µg/disc with Priestia megaterium [1] came out at 10 mm; in the experiment with Pseudomonas aeruginosa [22] it was 5 mm; with Micrococcus luteus [8], 9 mm; in the experiment on Salmonella typhi [24] it was 12 mm; with Fusarium verticillioides [25] it was 9 mm; with Escherichia coli [26], 5 mm. Further, the zone of inhibition at 10 µg/disc with Aspergillus oryzae [30] came to 9 mm. Also, the zone of inhibition at 40 µg/disc in the experiment on Candida albicans [23] turned out to be 9 mm. The MIC against Serratia marcescens [3], in the experiment with Pseudomonas aeruginosa [4], against Proteus vulgaris [6], against Klebsiella pneumoniae [11], in the experiment with Citrobacter freundii [13] and in the experiment on Micrococcus luteus [14] was 10 µg/mL (≈ 46.7 µM) each time. Further, the MIC against Escherichia coli [16], in the experiment with Salmonella typhi [18] and in the experiment on Priestia megaterium [21] was 10 µg/mL (≈ 46.7 µM) throughout. The zone of inhibition at 20 µg/disc was 7 mm in the experiment with Citrobacter freundii [5], 9 mm with Serratia marcescens [28], 7 mm in the experiment on Aspergillus niger and 11 mm with Proteus vulgaris [29]. Also, the “diameter of the inhibition zone (DIZ)” value in the experiment on Klebsiella pneumoniae [27] worked out at 10 mm.
